Data taken from patent publication US20070293581A1, “Methods for Buccal, Lingual or Sublingual Dosing Regimens of Epinephrine for the Treatment of Allergic Emergencies” (priority 2006, published 2007).
Where two headings read alike, the source gives them in different places.

System: patient experiencing an allergic emergency (symptoms of anaphylaxis)
Experimental: A patient experiencing an allergic emergency initiates treatment at the onset of shortness of breath by self administering 40 mg of epinephrine free base in a buccal dosage form.
A patient experiencing an allergic emergency initiates treatment at the onset of shortness of breath by self administering 40 mg of epinephrine free base in a buccal dosage form. […] After another approximately 5 minutes pass without amelioration of the symptoms of anaphylaxis, the patient self administers a third buccal dosage form comprising 20 mg of epinephrine free base.
A patient experiencing an allergic emergency initiates treatment at the onset of shortness of breath by self administering 40 mg of epinephrine free base in a lingual dosage form. After approximately 5 minutes pass without amelioration of the symptoms of anaphylaxis, the patient self administers a second lingual dosage form comprising 40 mg of epinephrine free base. After another approximately 5 minutes pass without amelioration of the symptoms of anaphylaxis, the patient self administers a third lingual dosage form comprising 20 mg of epinephrine free base.

Measured: patient's symptoms of anaphylaxis

CNC[C@H](O)c1ccc(O)c(O)c1 [epinephrine free base, epinephrine]
relieved: Example 1: buccal dosage form, 40 mg then second 40 mg after approx. 5 minutes, outcome within about five minutes after the second dose | Example 2: buccal dosage form, 40 mg, then 20 mg at approx. 5 minute intervals, outcome within about five minutes after the third dose | Example 3: lingual dosage form, 40 mg, then 20 mg at approx. 5 minute intervals, outcome within about five minutes after the third dose
